Series [1] in a line: Molar enthalpy of transition or fusion. The note with it: Crystal; DSC.
The conditions of series [2]: Crystal; DSC.

± gives the expanded uncertainty stated by the source.

As to `C[N+](C)(C)C[C@H](O)CC(=O)[O-].O=C(O)/C=C/C(=O)O` [L-carnitine fumarate], the “Molar enthalpy of transition or fusion” value in series [1] was found to be 12.2 ± 0.335 kcal/mol. In series [2], the Triple point temperature was 412.2 ± 0.8 K.

The record behind these values is the NIST ThermoML archive (doi:10.1021/acs.jced.7b00768).
